Experimental data from patent US7361665B2, “Inhibitors of c-Jun N-terminal kinases (JNK) and other protein kinases” (Vertex Pharmaceuticals Incorporated, priority 2002, dated 2008).

Legend:
[1] = biological target: T1, JNK3 (Homo sapiens, UniProt P53779); test: JNK inhibition assay (spectrophotometric coupled-enzyme assay); type: biochemical; conditions: activated JNK3 10 nM, 10 μM ATP, 30° C.; read-out: JNK3 Activity (Ki rating)
T1 construct: One such construct encodes amino acid residues Ser40-Glu402 of JNK3α1 and is preceded by Met and Gly residues; Met-Gly dipeptide (initiation Met plus Gly added for the NcoI site) (N); made in house; host or cells: E. coli BL21 (DE3)
Source text: A BLAST search of the EST database using the published JNK3α1 cDNA as a query identified an EST clone (#632588) that contained the entire coding sequence for human JNK3α1. Polymerase chain reactions (PCR) using pfu polymerase (Strategene) were used to introduce restriction sites into the cDNA for cloning into the pET-15B expression vector at the NcoI and BamHI sites. The protein was expressed in E. coli. Due to the poor solubility of the expressed full-length protein (Met 1-Gln 422), an N-terminally truncated protein starting at Ser residue at position 40 (Ser 40) was produced. This truncation corresponds to Ser 2 of JNK1 and JNK2 proteins, and is preceded by a methionine (initiation) and a glycine residue. The glycine residue was added in order to introduce an NcoI site for cloning into the expression vector. In addition, systematic C-terminal truncations were performed by PCR to identify a construct that give rise to diffraction-quality crystals. One such construct encodes amino acid residues Ser40-Glu402 of JNK3α1 and is preceded by Met and Gly residues.
Five mg of JNK3 was diluted to 0.5 mg/ml in 50 mM HEPES buffer, pH 7.5, containing 100 mM NaCl, 5 mM DTT, 20 mM MgCl2 and 1 mM ATP. GST-MKK7(DD) was added at a molar ratio of 1:2.5 GST-MKK7:JNK3. After incubation for 30 minutes at 25° C., the reaction mixture was concentrated 5-fold by ultrafiltration in a Centriprep-30 (Amicon, Beverly, Mass.), diluted to 10 ml and an additional 1 mM ATP added. This procedure was repeated three times to remove ADP and replenish ATP. The final addition of ATP was 5 mM and the mixture incubated overnight at 4° C.
The activated JNK3/GST-MKK7(DD) reaction mixture was exchanged into 50 mM HEPES buffer, pH 7.5, containing 5 mM DTT and 5% glycerol (w/v) by dialysis or ultrafiltration. The reaction mixture was adjusted to 1.1 M potassium phosphate, pH 7.5, and purified by hydrophobic interaction chromatography (at 25° C.) using a Rainin Hydropore column. […] Activated JNK3 (i.e. doubly phosphorylated JNK3) was stored at −70° C. at 0.25-1 mg/ml.
Compounds were assayed for the inhibition of JNK3 by a spectrophotometric coupled-enzyme assay. In this assay, a fixed concentration of activated JNK3 (10 nM) was incubated with various concentrations of a potential inhibitor dissolved in DMSO for 10 minutes at 30° C. in a buffer containing 0.1 M HEPES buffer, pH 7.5, containing 10 mM MgCl2, 2.5 mM phosphoenolpyruvate, 200 μM NADH, 150 μg/mL pyruvate kinase, 50 μg/mL lactate dehydrogenase, and 200 μM EGF receptor peptide. The EGF receptor peptide has the sequence […] (SEQ ID NO: 3), and is a phosphoryl acceptor in the JNK3-catalyzed kinase reaction. The reaction was initiated by the addition of 10 μM ATP and the assay plate is inserted into the spectrophotometer's assay plate compartment that was maintained at 30° C. The decrease of absorbance at 340 nm was monitored as a function of time. The rate data as a function of inhibitor concentration was fitted to competitive inhibition kinetic model to determine the Ki.
The compound numbers correspond to the compound numbers in Tables 1-3.

[2] = biological target: human Lck kinase; test: Lck inhibition assay (radioactivity-based assay A or spectrophotometric assay B); type: biochemical
Description: The compounds of this invention can be evaluated as inhibitors of human Lck kinase using either a radioactivity-based assay or spectrophotometric assay.
The compounds are assayed as inhibitors of full length bovine thymus Lck kinase (from Upstate Biotechnology, cat. no. 14-106) expressed and purified from baculo viral cells. Lck kinase activity is monitored by following the incorporation of ^33P from ATP into the tyrosine of a random poly Glu-Tyr polymer substrate of composition, Glu:Tyr=4:1 (Sigma, cat. no. P-0275). The following are the final concentrations of the assay components: 0.025 M HEPES, pH 7.6, 10 mM MgCl2, 2 mM DTT, 0.25 mg/ml BSA, 10 μM ATP (1-2 μCi ^33P-ATP per reaction), 5 mg/ml poly Glu-Tyr, and 1-2 units of recombinant human […] kinase. In a typical assay, all the reaction components with the exception of ATP are pre-mixed and aliquoted into assay plate wells. […] The plates are sealed and the amount of radioactivity associated with the filters is quantified on a TopCount scintillation counter. The radioactivity incorporated is plotted as a function of the inhibitor concentration. […]
In a typical assay, all the reaction components with the exception of ATP are pre-mixed and aliquoted into assay plate wells. […] The absorbance change at 340 nm with time, the rate of the reaction, is monitored on a molecular devices plate reader. […]

T1 sequence (P53779 40-402): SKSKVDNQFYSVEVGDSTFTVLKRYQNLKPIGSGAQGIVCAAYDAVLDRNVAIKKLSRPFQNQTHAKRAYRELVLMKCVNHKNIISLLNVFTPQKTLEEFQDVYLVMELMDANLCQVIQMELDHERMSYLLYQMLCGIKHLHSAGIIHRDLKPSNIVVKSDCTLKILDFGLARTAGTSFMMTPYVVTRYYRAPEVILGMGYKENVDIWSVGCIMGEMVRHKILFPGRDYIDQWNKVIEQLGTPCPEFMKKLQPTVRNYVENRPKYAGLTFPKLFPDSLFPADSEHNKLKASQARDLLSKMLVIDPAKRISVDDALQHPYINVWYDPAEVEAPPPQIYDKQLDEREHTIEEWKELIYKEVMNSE

## Cc1nc(-c2cccs2)sc1-c1ccnc(Nc2ccc(S(N)(=O)=O)cc2)n1 [IIc-22]
[1]
  Ki: < 100 nM
[2]
  Ki: < 100 nM
